What was measured:
[1] = system: Mouse B16 melanoma cells; experiment: Melanin formation inhibition test; assay type: cell-based; conditions: for Ratio of Amount of Melanin (%): 3 days, solvent-only group = 100
Experimental: As will be described in detail in the subsequent examples, screening for aromatic components of the melanin formation inhibitor was carried out by allowing various candidate aromatics to act on B16 melanoma, and evaluating cytotoxicity and the ratio of the amount of melanin (%) in comparison with a control (addition of solvent only). Mouse B16 melanoma cells were disseminated in a 6-well plate at 100,000 cells/well. On the following day, a test substance solution (solvent: ethyl alcohol) was added and used in a cell proliferation test and melanin formation inhibition test. A nature identical synthetic aromatic in the form of phenylethyl cinnamate (Toyotama International Inc.) was used for the test substance, and it was used in the tests indicated below. The medium was aspirated off 3 days after addition of test substance, and after washing using a buffer (50 mM phosphate buffer, pH 6.8), 1 M NaOH solution was added to lyse the cells followed by measurement of absorbance at 475 nm. The ratio of the amount of melanin (%) of a test substance addition group based on a value of 100 for a test substance non-addition group (addition of solvent only) was calculated using that value as a relative value of the amount of melanin. A lower value for the ratio of the amount of melanin means higher melanin formation inhibitory effects.

[2] = system: Mouse B16 melanoma cells; experiment: Cell proliferation test (alamar blue); assay type: cell-based; conditions: for No. of Cells (%): 3 days, solvent-only group = 100
Experimental: As will be described in detail in the subsequent examples, screening for aromatic components of the melanin formation inhibitor was carried out by allowing various candidate aromatics to act on B16 melanoma, and evaluating cytotoxicity and the ratio of the amount of melanin (%) in comparison with a control (addition of solvent only). Mouse B16 melanoma cells were disseminated in a 6-well plate at 100,000 cells/well. On the following day, a test substance solution (solvent: ethyl alcohol) was added and used in a cell proliferation test and melanin formation inhibition test. A nature identical synthetic aromatic in the form of phenylethyl cinnamate (Toyotama International Inc.) was used for the test substance, and it was used in the tests indicated below. After aspirating off the medium 3 days after adding the test substance solution, 1 ml of EMEM medium containing 10% alamar blue solution was added and allowed to react at 37° C. 30 minutes later, 100 μl were transferred to a […] followed by measurement of fluorescence at an excitation wavelength of 544 nm and measurement wavelength of 590 nm. The ratio of the number of cells (% number of cells) of a test substance addition group based on a value of 100 for a test substance non-addition group (addition of solvent only) was calculated by using that value as a relative value of the number of viable cells. A higher value for % number of cells means a lower level of cytotoxicity.

[3] = test substance final concentration 1 ppm
[4] = test substance final concentration 2 ppm

## O=C(/C=C/c1ccccc1)OCCc1ccccc1 [Phenylethyl Cinnamate, 2-Phenylethyl 3-phenyl • propenoate]
[1]; summary of Table 1 results
  melanin formation inhibitory effects (in words): superior melanin formation inhibitory effects
[1]; [3]
  Ratio of Amount of Melanin (%): 82%
[1]; [4]
  Ratio of Amount of Melanin (%): 74%
[2]; summary of Table 1 results
  cytotoxicity (in words): hardly any cytotoxicity
[2]; [3]
  No. of Cells (%): 94%
[2]; [4]
  No. of Cells (%): 92%
